From PMC5541792, “Simultaneous Determination of 11 Compounds in Gualou Guizhi Granule and Pharmacokinetics Study by UPLC-MS/MS” (Journal of Analytical Methods in Chemistry, 2017)

Key:
[1] = Pharmacokinetic study in rats after oral administration of GLGZG (UPLC-MS/MS of plasma); format: in vivo, rat; conditions: for AUC(0–∞) / Tmax / MRT inf / half-life / Vd/F: rat plasma, male SD rats, oral GLGZG 3.6 g·(kg·day)^−1, n = 6; for MRT inf: read-out: MRT(0–∞) (converted); for half-life: read-out: T 1/2z; for Vd/F: read-out: Vz/F; for Plasma concentration-time behaviour (in words): rat plasma after oral GLGZG
Description: Chromatographic separation was performed on an Waters CORTECS C18 (2.1 × 100 mm, 1.6 μm) with the column temperature at 45°C. The mobile phase was composed of 0.1% formic acid in water (A) and acetonitrile (B) with a gradient program (0–0.5 min from 8% to 10% B; 0.5–2.5 min from 10% to 15% B; 2.5–4.0 min from 15% to 60% B; 4.0–5.0 min from 60% to 95% B; 5.0–6.5 min 95% B). The flow rate was 0.25 mL/min and the injection volume was 1 μL.
Mass spectrometry was operated using a Waters (Milford, MA) Xevo TQMS with an electrospray ion source (ESI) in the negative ion multiple reaction monitoring (MRM) mode. The other detailed MS parameters were as follows: drying gas: N2 (purity of 99.9%), 15 L/min, nebulizing gas: 50 L/min, capillary voltage: 2.5 kv.
Plasma samples (100 μL of plasma) and IS working solutions (10 μL of swertiamarin, kaempferol-3-O-rutinoside, and ginsenoside Rb1) were combined and briefly vortex-mixed for 3 min followed by the addition of 4-fold acetonitrile. Then the mixture was centrifuged at 12000 rpm for 10 min. The supernatant was transferred to a clean tube and concentrated up to dryness; the residue was dissolved in 100 μL 50% methanol. Finally, 1 μL aliquot was injected into UPLC-MS/MS system for analysis.
Six male SD rats, weighing 250 ± 20 g, were provided by Experimental Animal Research Center of Fujian TCM University (Fuzhou, China). And they were housed at controlled environmental conditions (temperature: 23 ± 2°C, relative humidity: 55 ± 10%) with free access to standard laboratory food and water. The rats were fasted for 12 h but with access to water before being given GLGZG (3.6 g·(kg·day)^−1). Blood samples of 0.3 mL were collected in heparin containing tubes from epicanthic veins of rats by capillary tube before dose (0 h) and at 5 min, 10 min, 20 min, 0.5 h, 1 h, 1.5 h, 2 h, 3 h, 6 h, 9 h, and 12 h. Then they were centrifuged at 12000 rpm for 10 min. The supernatant liquor was collected and frozen at −20°C until use.
The validated UPLC-MS/MS method was successfully applied to the PK studies of eleven analytes following oral administration of GLGZG to individual male rats (n = 6). The main pharmacokinetic parameters were summarized in Table 8 and the mean plasma concentration-time profiles of the eleven analytes were illustrated in Figure 3.

[2] = Stability of analytes in rat plasma samples (method validation); format: in vitro ADME; conditions: n = 6; for Autosampler stability (24 h) Mean: 4°C for 24 h; for Stability (24 h at room temperature) Mean: 25°C for 24 h; for Freeze-thaw stability (3 cycles) Mean: three freeze-thaw cycles at −80°C
Description: Stability of the analytes from plasma samples was performed by determining three different concentrations (low, middle, and high samples) in six replicates under different conditions. It included short-term stability which was assessed by keeping samples at room temperature (25°C) for 24 h, stability which was measured using samples stored at 4°C for 24 h, and freeze-thaw stability that was determined after three freeze-thaw cycles at −80°C.

[3] = middle QC nominal concentration

CC12CC(O)C3CC1(OC1OC(CO)C(O)C(O)C1O)C3(COC(=O)c1ccccc1)C(=O)O2 (stereo not drawn) [Albiflorin, albiflorin]
AUC(0–∞) [1]: 1263.37 ± 306.91 mg·L/min | Tmax [1]: 1 h | MRT inf [1]: 3.59 h | half-life [1]: 2.13 ± 0.596 h | Vd/F [1]: 2.67 ± 0.87 L/kg | Autosampler stability (24 h) Mean ([2]; high QC nominal concentration): 107.72% | Autosampler stability (24 h) Mean ([2]; low QC nominal concentration): 97.93% | Autosampler stability (24 h) Mean [2, 3]: 111.49% | Stability (24 h at room temperature) Mean ([2]; high QC nominal concentration): 108.45% | Stability (24 h at room temperature) Mean ([2]; low QC nominal concentration): 94.78% | Stability (24 h at room temperature) Mean [2, 3]: 93.66% | Freeze-thaw stability (3 cycles) Mean ([2]; high QC nominal concentration): 98.89% | Freeze-thaw stability (3 cycles) Mean ([2]; low QC nominal concentration): 99.77% | Freeze-thaw stability (3 cycles) Mean [2, 3]: 108.14%

CC1(C)[C@@H](O)CC[C@]2(C)[C@H]3C(=O)C=C4[C@@H]5C[C@@](C)(C(=O)O)CC[C@]5(C)CC[C@@]4(C)[C@]3(C)CC[C@@H]12 [Glycyrrhetinic acid, glycyrrhetinic acid]
AUC(0–∞) [1]: 2041.10 ± 706.58 mg·L/min | Tmax [1]: 10 h | MRT inf [1]: 11.8 h | half-life [1]: 2.2 ± 0.472 h

CC1(C)[C@@H](O[C@H]2O[C@H](C(=O)O)[C@@H](O)[C@H](O)[C@H]2O[C@@H]2O[C@H](C(=O)O)[C@@H](O)[C@H](O)[C@H]2O)CC[C@]2(C)[C@H]3C(=O)C=C4[C@@H]5C[C@@](C)(C(=O)O)CC[C@]5(C)CC[C@@]4(C)[C@]3(C)CC[C@@H]12 [Glycyrrhizic acid, glycyrrhizic acid]
Plasma concentration-time behaviour (in words) [1]: double-peak phenomenon | AUC(0–∞) [1]: 1262.61 ± 158.73 mg·L/min | Tmax [1]: 0.9 h | MRT inf [1]: 4.4 h | half-life [1]: 2.86 ± 0.561 h | Vd/F [1]: 3.92 ± 1.44 L/kg | Autosampler stability (24 h) Mean ([2]; low QC nominal concentration): 97.71% | Autosampler stability (24 h) Mean [2, 3]: 92.82% | Stability (24 h at room temperature) Mean ([2]; high QC nominal concentration): 94.94% | Stability (24 h at room temperature) Mean ([2]; low QC nominal concentration): 96.05% | Stability (24 h at room temperature) Mean [2, 3]: 92.18% | Freeze-thaw stability (3 cycles) Mean ([2]; high QC nominal concentration): 98.20% | Freeze-thaw stability (3 cycles) Mean ([2]; low QC nominal concentration): 98.31% | Freeze-thaw stability (3 cycles) Mean [2, 3]: 108.78%

O=C(/C=C/c1ccc(O)cc1)c1ccc(O)cc1O [Isoliquiritigenin, isoliquiritigenin]
Plasma concentration-time behaviour (in words) [1]: low in the blood | AUC(0–∞) [1]: 8.52 ± 0.98 mg·L/min | Tmax [1]: 0.5 h | MRT inf [1]: 4.76 h | half-life [1]: 3.4 ± 0.675 h | Vd/F [1]: 700 ± 187 L/kg | Autosampler stability (24 h) Mean ([2]; high QC nominal concentration): 108.30% | Autosampler stability (24 h) Mean ([2]; low QC nominal concentration): 106.19% | Autosampler stability (24 h) Mean [2, 3]: 91.71% | Stability (24 h at room temperature) Mean ([2]; low QC nominal concentration): 99.77% | Stability (24 h at room temperature) Mean [2, 3]: 93.66% | Freeze-thaw stability (3 cycles) Mean ([2]; high QC nominal concentration): 109.21% | Freeze-thaw stability (3 cycles) Mean ([2]; low QC nominal concentration): 99.28% | Freeze-thaw stability (3 cycles) Mean [2, 3]: 107.70%

O=C(/C=C/c1ccc(O[C@@H]2O[C@H](CO)[C@@H](O)[C@H](O)[C@H]2O)cc1)c1ccc(O)cc1O [Isoliquiritin, isoliquiritin]
AUC(0–∞) [1]: 27.17 ± 2.69 mg·L/min | Tmax [1]: 0.472 h | MRT inf [1]: 5.66 h | half-life [1]: 4.6 ± 0.866 h | Vd/F [1]: 297 ± 70 L/kg | Autosampler stability (24 h) Mean ([2]; high QC nominal concentration): 95.62% | Autosampler stability (24 h) Mean [2, 3]: 97.14% | Stability (24 h at room temperature) Mean [2, 3]: 99.28% | Freeze-thaw stability (3 cycles) Mean ([2]; high QC nominal concentration): 108.88% | Freeze-thaw stability (3 cycles) Mean ([2]; low QC nominal concentration): 98.98% | Freeze-thaw stability (3 cycles) Mean [2, 3]: 94.03%

O=C1C[C@@H](c2ccc(O)cc2)Oc2cc(O)ccc21 [Liquiritigenin, liquiritigenin]
AUC(0–∞) [1]: 20.38 ± 4.30 mg·L/min | Tmax [1]: 0.445 h | MRT inf [1]: 4.92 h | half-life [1]: 3.87 ± 0.477 h | Vd/F [1]: 341 ± 73.6 L/kg | Autosampler stability (24 h) Mean ([2]; high QC nominal concentration): 97.16% | Autosampler stability (24 h) Mean ([2]; low QC nominal concentration): 98.45% | Autosampler stability (24 h) Mean [2, 3]: 93.53% | Stability (24 h at room temperature) Mean ([2]; high QC nominal concentration): 97.03%

O=C1C[C@@H](c2ccc(O[C@@H]3O[C@H](CO)[C@@H](O)[C@H](O)[C@H]3O)cc2)Oc2cc(O)ccc21 [Liquiritin, liquiritin]
AUC(0–∞) [1]: 54.87 ± 14.40 mg·L/min | MRT inf [1]: 5.93 h | half-life [1]: 5.16 ± 1.11 h | Vd/F [1]: 167 ± 35.9 L/kg | Autosampler stability (24 h) Mean ([2]; high QC nominal concentration): 90.84% | Autosampler stability (24 h) Mean [2, 3]: 92.30% | Stability (24 h at room temperature) Mean ([2]; high QC nominal concentration): 106.73% | Stability (24 h at room temperature) Mean ([2]; low QC nominal concentration): 95.70% | Freeze-thaw stability (3 cycles) Mean ([2]; high QC nominal concentration): 97.91% | Freeze-thaw stability (3 cycles) Mean ([2]; low QC nominal concentration): 101.75% | Freeze-thaw stability (3 cycles) Mean [2, 3]: 109.75%

C[C@@]12C[C@@]3(O)O[C@@H](O1)[C@]1(COC(=O)c4ccccc4)[C@H]3C[C@@]12O[C@@H]1O[C@H](CO)[C@@H](O)[C@H](O)[C@H]1O [Paeoniflorin, paeoniflorin]
AUC(0–∞) [1]: 904.73 ± 317.76 mg·L/min | Tmax [1]: 1.33 h | MRT inf [1]: 3.93 h | half-life [1]: 2.38 ± 0.502 h | Vd/F [1]: 6.31 ± 1.63 L/kg | Autosampler stability (24 h) Mean ([2]; high QC nominal concentration): 113.81% | Autosampler stability (24 h) Mean ([2]; low QC nominal concentration): 103.46% | Autosampler stability (24 h) Mean [2, 3]: 98.29% | Stability (24 h at room temperature) Mean ([2]; high QC nominal concentration): 109.75% | Stability (24 h at room temperature) Mean ([2]; low QC nominal concentration): 105.66% | Stability (24 h at room temperature) Mean [2, 3]: 91.25% | Freeze-thaw stability (3 cycles) Mean ([2]; low QC nominal concentration): 97.71% | Freeze-thaw stability (3 cycles) Mean [2, 3]: 92.82%
